Test results reported in paper PMC13128453, “Complexoform-restricted covalent TRMT112 ligands that allosterically agonize METTL5” (Nature Chemical Biology, 2025).

How the values were obtained:
REEP5 = molecular target: T1, REEP5 (Homo sapiens, UniProt Q00765); assay: cysteine-directed and competitive protein-directed ABPP in cells; type: cell-based; conditions: read-out: Competition (%)
T1 construct: endogenous protein in Ramos cells

TRMT112 [1] = molecular target: T2, TRMT112 (Homo sapiens, UniProt Q9NRN9+Q9UI30); assay: intact MS kobs/[I] on purified complex; competitive gel-ABPP in HCT116 cells (IC50); type: cell-based; design: TRMT112-FLAG:HA-METTL5 in HCT116 cells (IC50); purified TRMT112:His-METTL5 (intact MS); with METTL5
UVRAG = molecular target: T3, UVRAG (Homo sapiens, UniProt Q9P2Y5); assay: cysteine-directed and competitive protein-directed ABPP in cells; type: cell-based; conditions: read-out: Competition (%)
T3 construct: endogenous protein in Ramos cells
T3 sequence (Q9P2Y5 1-699): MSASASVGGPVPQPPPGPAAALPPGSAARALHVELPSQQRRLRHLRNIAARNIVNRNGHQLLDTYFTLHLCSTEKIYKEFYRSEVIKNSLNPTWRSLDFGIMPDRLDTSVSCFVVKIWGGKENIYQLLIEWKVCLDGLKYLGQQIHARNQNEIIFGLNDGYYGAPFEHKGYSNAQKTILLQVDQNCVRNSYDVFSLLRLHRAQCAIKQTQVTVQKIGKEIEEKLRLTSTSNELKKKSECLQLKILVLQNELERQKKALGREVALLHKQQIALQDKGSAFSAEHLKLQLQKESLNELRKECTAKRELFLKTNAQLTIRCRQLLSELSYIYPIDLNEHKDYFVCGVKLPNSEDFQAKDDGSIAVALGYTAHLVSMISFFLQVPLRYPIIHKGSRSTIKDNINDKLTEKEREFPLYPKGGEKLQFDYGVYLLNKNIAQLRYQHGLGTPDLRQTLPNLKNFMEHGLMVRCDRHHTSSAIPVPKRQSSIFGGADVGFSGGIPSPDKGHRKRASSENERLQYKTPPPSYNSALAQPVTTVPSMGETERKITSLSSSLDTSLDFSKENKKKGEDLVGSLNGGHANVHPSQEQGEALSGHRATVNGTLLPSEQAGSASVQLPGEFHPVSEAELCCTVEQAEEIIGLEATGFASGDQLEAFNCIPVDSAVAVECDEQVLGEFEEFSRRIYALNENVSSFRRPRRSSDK

RNF14 [2] = molecular target: T4, RNF14 (Homo sapiens, UniProt Q9UBS8); assay: cysteine-directed ABPP (Glu-C) and competitive protein-directed ABPP in cells; type: cell-based; design: endogenous RNF14 in Ramos cells; recombinant RNF14-FLAG in HEK293T cells; conditions: read-out: Competition (%)
T4 sequence (Q9UBS8 1-474): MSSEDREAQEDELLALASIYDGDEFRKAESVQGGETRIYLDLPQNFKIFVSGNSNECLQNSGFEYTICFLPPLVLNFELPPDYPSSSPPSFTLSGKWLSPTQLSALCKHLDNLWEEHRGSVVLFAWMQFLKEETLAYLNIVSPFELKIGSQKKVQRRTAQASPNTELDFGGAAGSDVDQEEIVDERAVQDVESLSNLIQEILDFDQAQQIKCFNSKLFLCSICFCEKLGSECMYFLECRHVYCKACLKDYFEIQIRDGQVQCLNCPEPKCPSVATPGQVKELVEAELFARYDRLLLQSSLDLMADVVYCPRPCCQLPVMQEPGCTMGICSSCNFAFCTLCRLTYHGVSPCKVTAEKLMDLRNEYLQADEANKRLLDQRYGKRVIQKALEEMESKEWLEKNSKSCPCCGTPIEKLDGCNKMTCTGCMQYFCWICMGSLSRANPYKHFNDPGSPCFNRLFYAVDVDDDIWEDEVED

TRMT112 [3] = molecular target: T2, TRMT112; assay: intact MS kobs/[I] on purified complex; gel-ABPP and protein-directed ABPP in cells; type: binding; design: purified WT-TRMT112:His-METTL5 (intact MS); TRMT112-FLAG in HCT116 cells coexpressing HA-METTL5; with METTL5
RNF14 [4] = molecular target: T4, RNF14; assay: gel-ABPP and protein-directed ABPP in cells; type: cell-based; design: RNF14-FLAG expressed in HEK293T cells
TRMT112 [5] = molecular target: T2, TRMT112; assay: […] A cocrystal structure; intact MS (kobs/[I][…] s-1); competitive gel-ABPP on purified complex; type: binding; design: full-length, tag-free TRMT112:METTL5 complex (crystal); TRMT112:His-METTL5 (IC50); with METTL5
[6] = molecular target: T5, METTL5 (tag-free, of the tag-free TRMT112:METTL5 complex) (human, UniProt Q9NRN9 1-209); assay: crystal structure; tag-free TRMT112:METTL5 complex modified with FWG-33B in the presence of SAM; crystals in 21% PEG3350, 0.36 M ammonium sulfate, 0.1 M Bis–Tris pH 5.5, 4 °C; 1.3 Å; conditions: both partners purified
T5 construct: METTL5, human, full-length gene codon-optimized for E. coli; same construct as His–METTL5, the His tag removed with TEV protease; By the printed primer a Ser would remain before the first Met after TEV cleavage; also called WT-METTL5; source: E. coli BL21 (DE3), coexpressed with TRMT112, purified (Ni-NTA, TEV cleavage, Ni-NTA, anion exchange, SEC); not shown: His tag, N-terminal, cleaved
T5 sequence (Q9NRN9 whole entry, one chain of several): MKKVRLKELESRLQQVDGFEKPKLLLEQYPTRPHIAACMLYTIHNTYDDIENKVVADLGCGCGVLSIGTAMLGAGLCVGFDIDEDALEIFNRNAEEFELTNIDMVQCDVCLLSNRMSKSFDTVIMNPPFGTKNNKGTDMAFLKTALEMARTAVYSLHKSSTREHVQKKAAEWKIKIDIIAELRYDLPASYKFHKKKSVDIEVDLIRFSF

T2 sequence (Q9NRN9 whole entry, one chain of several): as above
T1 sequence (Q00765 whole entry): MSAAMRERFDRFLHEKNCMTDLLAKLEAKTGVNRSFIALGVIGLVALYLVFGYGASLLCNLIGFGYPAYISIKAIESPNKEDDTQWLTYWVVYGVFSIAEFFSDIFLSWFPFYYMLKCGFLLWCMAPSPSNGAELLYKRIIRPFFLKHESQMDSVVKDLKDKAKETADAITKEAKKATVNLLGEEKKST

Work on C=CC(=O)N1C[C@@H]2[C@H](C1)[C@@H](c1cccc(OC)c1)C[C@H]2Oc1ccc(NC(C)=O)cc1 [compound 10, FWG-1B] yielded an inhibition at 50 µM (REEP5) of over 60% and an IC50 (TRMT112 [1]) of 12 µM.

C=CC(=O)N1C[C@@H]2[C@H](C1)[C@H](Oc1ccc(NC(C)=O)cc1)C[C@H]2c1cccc(OC)c1 [compound 11, FWG-2A] showed an inhibition at 50 µM (UVRAG) of over 80%.

Molecule C=CC(=O)N1C[C@@H]2[C@H](C1)[C@@H](c1cccc(OC)c1)C[C@@H]2Oc1ccc(NC(C)=O)cc1 [compound 12, FWG-2B] has an inhibition at 50 µM (RNF14 [2]) of over 80%.

C#CCCC(=O)Nc1ccc(O[C@@H]2C[C@H](c3cccc(OC)c3)[C@H]3CN(C(=O)C=C)C[C@H]32)cc1 [compound 14, FWG-3B] was tested, and the “intact MS kobs/[I] on purified complex; gel-ABPP and protein-directed ABPP in ce” value (TRMT112 [3]) was “FWG-3B showed enhanced reactivity with TRMT112 exclusively in cells coexpressing the RNA MT METTL5”.

With C#CCCC(=O)Nc1ccc(O[C@H]2C[C@H](c3cccc(OC)c3)[C@H]3CN(C(=O)C=C)C[C@H]32)cc1 [compound 16, FWG-4B] the “gel-ABPP and protein-directed ABPP in cells” value (RNF14 [4]) was “engagement of recombinant WT-RNF14-FLAG and C68A-RNF14-FLAG, but not C212A-RNF14-FLAG by FWG-4B”.

With C=CC(=O)N1C[C@@H]2[C@H](C1)[C@@H](c1cccc(Cl)c1)C[C@H]2Oc1ccc(NC(C)=O)cc1 [compound 22, FWG-33B] the IC50 (TRMT112 [5]) was 0.47 µM.

B1: TRMT112 modified by FWG-33B at C100 (of the FWG-33B-liganded tag-free TRMT112:METTL5 complex) (natural protein, human, UniProt Q9UI30 1-125, looked up)
chain: MKLLTHNLLSSHVRGVGSRGFPLRLQATEVRICPVEFNPNFVARMIPKVEWSAFLEAADNLRLIQVPKGPVEGYEENEEFLRTMHHLLLEVEVIEGTLQCPESGRMFPISRGIPNMLLSEEETES
modifications: covalent adduct between the acrylamide of FWG-33B and C100
notes: TRMT112, human, full-length gene codon-optimized for E. coli, in pACYCDuet-1; also called FWG-33B-modified TRMT112; source: E. coli BL21 (DE3), coexpressed with METTL5, purified as tag-free complex, then treated with 100 μM FWG-33B
B1: binds [6].
